Values after ≈ are worked out from the molar mass of the structure shown.
Legend:
[1] = rat models; cited from earlier work
[2] = DOSY NMR of saturated phenytoin with increasing polymer concentration; format: physicochemical; details: deuterated PBS, poly(NIPAm70-co-DMA30) concentration increased (up to 1000 μg/mL)
[3] = aqueous settings; cited from earlier work

Row | Compound | AUC over 24 h [1] | translational diffusion coefficient (D0) of phenytoin [2] | solubility [3]
1 | O=C1NC(c2ccccc2)(c2ccccc2)C(=O)N1COP(=O)(O)O [fosphenytoin] | 1860 ± 310 μg/mL-min | – | –
2 | O=C1NC(=O)C(c2ccccc2)(c2ccccc2)N1 [phenytoin] | – | 3.72 ± 0.19 × 10^–10 m^2/s | ~30 µg/mL (≈ 119 µM)

From article PMC5084074 (ACS Central Science, 2016)
